As usually defined, the IC50 is the concentration at which inhibition is half-maximal.

Experiment [1] relates to LPS-induced IL-6 production in human whole blood. Briefly: IL-6 human whole blood (HWB) assay, LPS-stimulated, HTRF detection. It is filed as cell-based. The conditions noted are these: 1 ng/ml LPS, 4 hours. As to the method: Compound effect on IL-6 production was determined using lipopolysaccharide (LPS)-stimulated human whole blood and an HTRF (Homogeneous Time-Resolved Fluorescence) IL-6 detection kit (Human IL6 HTRF Assay CisBio 62IL6PEC). HWB was collected by venous puncture from healthy donors, transferred to a 50 ml polypropylene tube containing sodium heparin (14.3 units per mL of HWB) and then placed in a 37° C. water bath until use. To start the assay, 80 μL of heparin-treated HWB containing 1 ng/ml of LPS (equivalent to LPS ˜EC80 with regard to stimulation of IL-6 production in HWB under these assay conditions) was added to each well of a 384-well, sterile, endotoxin-free, polypropylene plate (Greiner 781281) containing 160 nL of various concentrations of test compound (each plate also contained positive and negative control wells to define the upper and lower limits of the assay signal). The plate was then placed in a thermoshaker incubator set to 370C (Boekel 270440). The final assay concentration (FAC) of test compound ranged from 60 to 0.0006 μM and the FAC of DMSO was 0.2%. After 4 hours, the assay plate was removed from the incubator and centrifuged at 700×g for 10 minutes. 5 μL of the resulting upper plasma layer was removed from each well and diluted 1:2 with 1×Dulbecco's phosphate buffered saline (DPBS). 5 μL of this diluted plasma was then transferred to a white 384-well low volume assay plate (Greiner 784080) containing 5 μL of combined anti-IL-6-Cryptate and anti-IL-6-XL665 detection antibodies (per manufacturer's protocol). The plate was then sealed with a Top Seal (Perkin Elmer 6005185) and incubated at room temperature (RT, 20° C.). After 16-18 hrs (overnight), the HTRF assay signal was read on an Envision 2103 plate reader using a Lance Delfia Dual/Bias mirror TRF laser excitation and emission was measured at 665 nm and 615 nm respectively. The percent (%) effect was calculated for each concentration of test compound and was relative to the amount of HTRF signal produced by the positive and negative control wells contained within each assay plate. The concentrations and % effect values for test compounds were plotted versus each other with a proprietary curve fitting program using a four-parameter logistic dose response equation and the concentration of compound required for 50% effect (IC50) was determined.
Background: TR-FRET usually uses a lanthanide donor and a delayed reading to cut background.

In the next experiment the target is T1, BRD4 BD1 (Homo sapiens, UniProt O60885).
T1 construct: His-tagged BRD4 BD1 (44-160); made in house
The experiment in a line: BRD4 BD1 Fluorescence Polarization (FP) competition binding assay. To be noted: BRD4 BD1 40 nM, probe PFI-411FP 2 nM. As to the method:
Compound binding to BRD4 BD1 was assessed with a FP competition binding assay. […] All assay components were diluted in 50 mM HEPES pH 7.4 containing 0.08% bovine serum albumin (assay buffer). To start the assay, 8 μL of BRD4 BD1 was added to each well of a low volume 384-well black flat bottom microtiter plate (Corning 3820) containing 4 μl of various concentrations of test compound (each plate also contained positive and negative control wells to define the upper and lower limits of the assay signal). After addition of BRD4 BD1, the assay plate was incubated at room temperature (RT, 20° C.). After 15 minutes, 4 μL of PFI-411FP was added to each well and the assay plate was placed in the dark at RT. The final assay concentration (FAC) of PFI-411FP was 2 nM, the FAC of BRD4 BD1 was 40 nM, the FAC of test compound ranged from 120 to 0.0012 μM and the FAC of DMSO was 0.4%. After 60 min, polarization values were measured with an Envision 2103 multilabel reader (Perkin Elmer) using a Cy5 dual enhanced mirror and excitation at 620 nm and emission at 688 nm. The percent (%) effect was calculated for each concentration of test compound and was relative to the amount of polarization signal produced by the positive and negative control wells contained within each assay plate. The concentrations and % effect values for test compounds were plotted versus each other with a proprietary curve fitting program using a four-parameter logistic dose response equation and the concentration of compound required for 50% effect (IC50) was determined. The Ki values of competitive inhibitors were calculated using the equation described by Nikolovska-Coleska et al. (Development and optimization of a binding assay for the XIAP BIR3 domain using fluorescence polarization. Analytical Biochemistry (2004) 332: 261-273).
Background: Fluorescence polarisation rises when a labelled molecule tumbles more slowly, as on binding a larger partner.

The structures appear in SMILES notation.

Turning to `CCC(=O)N(C)c1ccc2nc(NCCC(=O)O)c(=O)n(C3(c4ccccc4)CCC3)c2n1` [Example 12, N-{6-[methyl(propanol)amino]-3-oxo-4-(1-phenylcyclobutyl)-3,4-dihydropyrido[2,3-b]pyrazin-2-yl}-beta-alanine], the results for the IC50 (in experiment [1]; at BRD4 BD1) were 18100 nM and 805 nM, respectively.

Consider `CCC(=O)N(C)c1ccc2nc(NCCC(=O)O)c(=O)n(C3C(CC)CCC3CC)c2n1` (stereo not drawn) [Example 13, N-{4-(2,5-diethylcyclopentyl)-6-[methyl(propanoyl)amino]-3-oxo-3,4-dihdropyrido[2,3-b]pyrazin-2-yl}-beta-alanine], for which the IC50 was found to be 846 nM in experiment [1] and 111 nM at BRD4 BD1.

For the compound `COC[C@@H](c1ccccc1)n1c(=O)c(NCCC(=O)O)nc2ccc(N(C)C(C)=O)nc21` [Example 14, N-{6-[acetyl(methyl)amino]-4-[(1R)-2-methoxy-1-phenylethyl]-3-oxo-3,4-dihydropyrido[2,3-b]pyrazin-2-yl}-beta-alanine], the 50% inhibitory concentration (IC50) in experiment [1] is 4800 nM; on BRD4 BD1, 223 nM.

As to `CCC[C@H](COC)n1c(=O)c(NCCC(=O)O)nc2ccc(N(C)C(=O)CC)nc21` [Example 17, N-{4-[(2R)-1-methoxypentan-2-yl]-6-[methyl(propanoyl)amino]-3-oxo-3,4-dihydropyrido[2,3-b]pyrazin-2-yl}-beta-alanine], the results for the IC50 (in experiment [1]; on BRD4 BD1) were 2430 nM and 268 nM, respectively.

As to `CCC(=O)N(C)c1ccc2nc(NC)c(=O)n(C(COC)COC)c2n1` [Example 20, N-(4-(1,3-dimethoxypropan-2-yl)-2-(methylamino)-3-oxo-3,4-dihydropyrido[2,3-b]pyrazin-6-yl)-N-methylpropionamide], the concentration for half-maximal inhibition (IC50) in experiment [1] was 1460 nM; at BRD4 BD1, 1070 nM.

For the compound `CC[C@@H](c1ccccc1)n1c(=O)c(NC(C)=O)nc2ccc(N(C)C(C)=O)nc21` [Example 21, N-{2-(acetylamino)-3-oxo-4-[(1S)-1-phenylpropyl]-3,4-dihydropyrido[2,3-b]pyrazin-6-yl}-N-methylacetamide], the 50% inhibitory concentration (IC50) in experiment [1] is 743 nM; at BRD4 BD1 it was 207 nM.

As to `CC[C@@H](c1ccccc1)n1c(=O)c(NCCC(=O)O)nc2ccc(N(C)C(=O)N(C)C)nc21` [Example 22, N-{6-[(dimethylcarbamoyl)(methyl)amino]-3-oxo-4-[(1S)-1-phenylpropyl]-3,4-dihydropyrido[2,3-b]pyrazin-2-yl}-beta-alanine], the 50% inhibitory concentration (IC50) in experiment [1] came to 22500 nM; on BRD4 BD1, 913 nM.

Take `CCC(=O)N(C)c1ccc2nc(NCCC(=O)O)c(=O)n([C@H](c3ccccn3)C(C)C)c2n1` [Example 23, N-{6-[methyl(propanol)amino]-4-[(1S)-2-methyl-1-(pyridin-2-yl)propyl]-3-oxo-3,4-dihydropyrido[2,3-b]pyrazin-2-yl}-beta-alanine]: the IC50 in experiment [1] is 2300 nM; at BRD4 BD1 it was 159 nM.

For `CC[C@@H](c1ccccc1)n1c(=O)c(NCCC(=O)NC)nc2ccc(N(C)C(=O)C3CCO3)nc21` (stereo partly drawn) [Example 28, N-methyl-N-(2-{[3-(methylamino)-3-oxopropyl]amino}-3-oxo-4-[(1S)-1-phenylpropyl]-3,4-dihydropyrido[2,3-b]pyrazin-6-yl)oxetane-2-carboxamide], the concentration for half-maximal inhibition (IC50) was 366 nM in experiment [1] and 149 nM at BRD4 BD1.

Take `CCC(=O)N(C)c1ccc2nc(NCC(=O)NC)c(=O)n([C@@H](CC)c3ccccc3)c2n1` [Example 29, N-methyl-N-(2-{[2-(methylamino)-2-oxoethyl]amino}-3-oxo-4-[(1S)-1-phenylpropyl]-3,4-dihydropyrido[2,3-b]pyrazin-6-yl)propanamide]: the half-inhibitory concentration (IC50) in experiment [1] turned out to be 239 nM; on BRD4 BD1, 102 nM.

Turning to `CCC(=O)N(C)c1ccc2nc(NCC(=O)NC)c(=O)n([C@H](c3ccccn3)C(C)C)c2n1` [Example 30, N-methyl-N-(2-{[2-(methylamino)-2-oxoethyl]amino}-4-[(1S)-2-methyl-1-(pyridin-2-yl)propyl]-3-oxo-3,4-dihydropyrido[2,3-b]pyrazin-6-yl)propanamide], the half-maximal inhibitory concentration (IC50) in experiment [1] amounted to 722 nM; at BRD4 BD1, 348 nM.

Take `CCC(=O)N(C)c1ccc2nc(NCCC(=O)NC)c(=O)n([C@@H](COC)c3ccccc3)c2n1` [Example 31, N^3-{4-[(1R)-2-methoxy-1-phenylethyl]-6-[methyl(propanoyl)amino]-3-oxo-3,4-dihydropyrido[2,3-b]pyrazin-2-yl}-N-methyl-beta-alaninamide]: the half-maximal inhibitory concentration (IC50) stood at 164 nM in experiment [1] and 110 nM at BRD4 BD1.

Consider `CCC(=O)N(C)c1ccc2nc(NCCC(=O)NC)c(=O)n([C@@H](CC)c3ccccc3)c2n1` [Example 32, N-methyl-N^3-{6-[methyl(propanoyl)amino]-3-oxo-4-[(1S)-1-phenylpropyl]-3,4-dihydropyrido[2,3-b]pyrazin-2-yl}-beta-alaninamide], for which the half-inhibitory concentration (IC50) was 266 nM in experiment [1] and 64.8 nM on BRD4 BD1.

`CCC(=O)N(C)c1ccc2nc(NCCC(=O)NC)c(=O)n([C@@H](CC)c3ccccn3)c2n1` [Example 33, N-methyl-N^3-{6-[methyl(propanoyl)amino]-3-oxo-4-[(1S)-1-(pyridin-2-yl)propyl]-3,4-dihydropyrido[2,3-b]pyrazin-2-yl}-beta-alaninamide]: the IC50 in experiment [1] turned out to be 452 nM; at BRD4 BD1, 363 nM.

Consider `CCC(=O)N(C)c1ccc2nc(NCCC(=O)NC)c(=O)n([C@H](c3ccccn3)C(C)C)c2n1` [Example 34, N-methyl-N^3-{6-[methyl(propanoyl)amino]-4-[(1S)-2-methyl-1-(pyridin-2-yl)propyl]-3-oxo-3,4-dihydropyrido[2,3-b]pyrazin-2-yl}-beta-alaninamide], for which the half-inhibitory concentration (IC50) was determined as 426 nM in experiment [1] and 167 nM on BRD4 BD1.

With `COc1ccccc1[C@H](C)n1c(=O)c(NCCN2CCOCC2)nc2ccc(-c3c(C)noc3C)nc21` [Example 35, 6-(3,5-dimethyl-1,2-oxazol-4-yl)-4-[(1S)-1-(2-methoxyphenyl)ethyl]-2-{[2-(morpholin-4-yl)ethyl]amino}pyrido[2,3-b]pyrazin-3(4H)-one], the figures for the IC50 (in experiment [1]; on BRD4 BD1) were 746 nM and 195 nM, respectively.

For the compound `CC[C@@H](c1ccccc1)n1c(=O)c(NCCN2CCOCC2)nc2ccc(-c3c(C)noc3C)nc21` [Example 39, 6-(3,5-dimethyl-1,2-oxazol-4-yl)-2-{[2-(morpholin-4-yl)ethyl]amino}-4-[(1S)-1-phenylpropyl]pyrido[2,3-b]pyrazin-3(4H)-one], the IC50 in experiment [1] came to 823 nM; at BRD4 BD1 it was 123 nM.

In the case of `Cc1noc(C)c1-c1ccc2nc(NCCN3CCOCC3)c(=O)n([C@@H](C)c3ccccc3)c2n1` [Example 40, 6-(3,5-dimethyl-1,2-oxazol-4-yl)-2-{[2-(morpholin-4-yl)ethyl]amino}-4-[(1S)-1-phenylethyl]pyrido[2,3-b]pyrazin-3(4H)-one], the concentration for half-maximal inhibition (IC50) worked out at 1390 nM in experiment [1] and 225 nM on BRD4 BD1.

For `Cc1noc(C)c1-c1ccc2nc(NCC(=O)O)c(=O)n([C@@H](C)c3ccccc3)c2n1` [Example 41, N-{6-(3,5-dimethyl-1,2-oxazol-4-yl)-3-oxo-4-[(1S)-1-phenylethyl]-3,4-dihydropyrido[2,3-b]pyrazin-2-yl}glycine], the values for the IC50 (in experiment [1]; at BRD4 BD1) were 35500 nM and 585 nM, respectively.
